Holding throughout (conditions): Compound Concentration 10.0 uM, Hit No
Experiment [1] deals with Endonuclease 8-like 1 (Homo sapiens) (UniProt Q96FI4).
Description: Inhibition of NEIL1 by quantifying inhibition of NEIL1-mediated cleavage and dissociation of quenched duplex DNA oligonucleotides, measured as fluorescence at 594 nm.
For experiment [2], the target named is T1, Adenine DNA glycosylase (Homo sapiens) (UniProt Q9UIF7).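 Note: human MUTYH activity read as 594 nm fluorescence from cleavage and release of a quenched DNA duplex, coupled with APE1 for strand incision, lower signal meaning inhibition.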
T1 sequence (whole entry): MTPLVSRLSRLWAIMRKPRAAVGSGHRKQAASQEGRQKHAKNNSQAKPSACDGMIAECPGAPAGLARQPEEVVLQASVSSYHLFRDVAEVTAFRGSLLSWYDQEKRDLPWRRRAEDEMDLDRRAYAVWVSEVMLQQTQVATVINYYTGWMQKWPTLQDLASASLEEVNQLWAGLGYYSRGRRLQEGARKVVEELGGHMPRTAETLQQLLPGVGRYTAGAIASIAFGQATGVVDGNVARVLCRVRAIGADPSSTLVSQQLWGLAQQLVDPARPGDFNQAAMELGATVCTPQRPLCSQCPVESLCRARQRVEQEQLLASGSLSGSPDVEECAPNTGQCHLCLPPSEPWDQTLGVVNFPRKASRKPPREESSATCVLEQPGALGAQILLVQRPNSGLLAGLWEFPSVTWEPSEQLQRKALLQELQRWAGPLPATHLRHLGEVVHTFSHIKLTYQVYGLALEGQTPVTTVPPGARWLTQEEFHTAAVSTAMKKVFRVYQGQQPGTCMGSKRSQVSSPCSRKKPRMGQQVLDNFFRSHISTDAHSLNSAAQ
Description: Inhibition of MUTYH by quantifying inhibition of MUTYH-mediated cleavage and dissociation of quenched duplex DNA oligonucleotides, measured as fluorescence at 594 nm. To generate a functional strand incision and increase turn-over this assay is coupled to APE1.

Experiment [3] concerns the target G/T mismatch-specific thymine DNA glycosylase (Homo sapiens) (UniProt Q13569).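 Note: human TDG cleavage of quenched duplex DNA oligonucleotides coupled to APE1, strand release read as fluorescence at 594 nm, inhibition of TDG activity.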
Description: Inhibition of TDG by quantifying inhibition of TDG-mediated cleavage and dissociation of quenched duplex DNA oligonucleotides, measured as fluorescence at 594 nm. To generate a functional strand incision and increase turn-over this assay is coupled to APE1.
In experiment [4] the target is T2, Single-strand selective monofunctional uracil DNA glycosylase (Homo sapiens) (UniProt Q53HV7).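 Note: enzymatic SMUG1 assay coupled with APE1, reading fluorescence at 594 nm released when a quenched double-stranded DNA oligonucleotide substrate is cleaved and separated.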
T2 sequence (whole entry): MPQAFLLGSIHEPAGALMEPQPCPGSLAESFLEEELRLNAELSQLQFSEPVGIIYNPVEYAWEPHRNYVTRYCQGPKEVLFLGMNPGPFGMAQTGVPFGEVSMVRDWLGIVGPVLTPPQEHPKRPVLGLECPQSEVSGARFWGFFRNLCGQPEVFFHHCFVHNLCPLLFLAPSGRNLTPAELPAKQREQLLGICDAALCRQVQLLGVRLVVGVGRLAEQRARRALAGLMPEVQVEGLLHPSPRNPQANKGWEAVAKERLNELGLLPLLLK
Description: Inhibition of SMUG1 by quantifying inhibition of SMUG1-mediated cleavage and dissociation of quenched duplex DNA oligonucleotides, measured as fluorescence at 594 nm. To generate a functional strand incision and increase turn-over this assay is coupled to APE1.

Experiment [5] deals with Methyl-CpG-binding domain protein 4 (Homo sapiens) (UniProt O95243).
Methyl-CpG-binding domain protein 4 (Homo sapiens), sequence (O95243 whole entry, the tested form may be a part): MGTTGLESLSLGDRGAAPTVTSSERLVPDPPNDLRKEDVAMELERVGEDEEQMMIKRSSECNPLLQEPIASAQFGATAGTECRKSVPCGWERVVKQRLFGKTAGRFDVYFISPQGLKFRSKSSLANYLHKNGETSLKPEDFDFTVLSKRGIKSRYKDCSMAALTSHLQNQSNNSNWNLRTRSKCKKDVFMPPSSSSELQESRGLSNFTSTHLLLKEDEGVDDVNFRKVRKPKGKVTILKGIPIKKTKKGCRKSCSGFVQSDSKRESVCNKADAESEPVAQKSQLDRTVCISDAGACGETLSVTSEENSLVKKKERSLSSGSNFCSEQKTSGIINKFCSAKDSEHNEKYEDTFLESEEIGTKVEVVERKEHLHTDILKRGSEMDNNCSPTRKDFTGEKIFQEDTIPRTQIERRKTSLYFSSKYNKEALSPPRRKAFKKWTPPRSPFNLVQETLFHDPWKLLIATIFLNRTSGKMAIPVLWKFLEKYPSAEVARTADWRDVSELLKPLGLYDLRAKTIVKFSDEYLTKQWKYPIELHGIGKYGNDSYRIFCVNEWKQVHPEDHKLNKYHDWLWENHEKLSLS
Description: Inhibition of MBD4 by quantifying inhibition of MBD4-mediated cleavage and dissociation of quenched duplex DNA oligonucleotides, measured as fluorescence at 594 nm. To generate a functional strand incision and increase turn-over this assay is coupled to APE1.
The target of experiment [6] is T3, Endonuclease 8-like 2 (Homo sapiens) (UniProt Q969S2).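 Note: fluorescence at 594 nm reports NEIL2 cutting and release of a quenched double-stranded DNA oligo substrate, reduced signal read as inhibition.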
T3 sequence (whole entry): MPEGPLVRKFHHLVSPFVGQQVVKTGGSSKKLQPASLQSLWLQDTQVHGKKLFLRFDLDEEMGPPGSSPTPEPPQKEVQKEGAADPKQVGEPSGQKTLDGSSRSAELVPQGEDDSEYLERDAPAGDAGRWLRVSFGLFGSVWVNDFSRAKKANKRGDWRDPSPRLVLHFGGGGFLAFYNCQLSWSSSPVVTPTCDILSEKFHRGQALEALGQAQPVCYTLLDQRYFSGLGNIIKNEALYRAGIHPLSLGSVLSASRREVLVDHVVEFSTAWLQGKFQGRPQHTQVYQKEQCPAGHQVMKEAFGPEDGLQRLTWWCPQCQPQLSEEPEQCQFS
Description: Inhibition of NEIL2 by quantifying inhibition of NEIL2-mediated cleavage and dissociation of quenched duplex DNA oligonucleotides, measured as fluorescence at 594 nm.

The target of experiment [7] is T4, Endonuclease III-like protein 1 (Homo sapiens) (UniProt P78549).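 Note: enzyme assay tracking NTHL1 cutting and release of a quenched double-stranded DNA oligo substrate, read as fluorescence at 594 nm.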
T4 sequence (whole entry): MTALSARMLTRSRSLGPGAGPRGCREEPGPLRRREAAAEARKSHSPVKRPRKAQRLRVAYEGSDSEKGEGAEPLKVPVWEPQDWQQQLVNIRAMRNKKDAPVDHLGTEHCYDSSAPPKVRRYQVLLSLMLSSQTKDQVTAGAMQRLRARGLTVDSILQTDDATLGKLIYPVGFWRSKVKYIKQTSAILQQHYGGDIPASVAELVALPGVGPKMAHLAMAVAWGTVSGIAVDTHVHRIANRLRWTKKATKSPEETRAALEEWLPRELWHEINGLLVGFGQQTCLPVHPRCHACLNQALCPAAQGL
Description: Inhibition of NTHL1 by quantifying inhibition of NTHL1-mediated cleavage and dissociation of quenched duplex DNA oligonucleotides, measured as fluorescence at 594 nm.

In experiment [8] the target is DNA-3-methyladenine glycosylase (Homo sapiens) (UniProt P29372).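 Note: enzyme assay where MPG cuts a quenched duplex DNA oligonucleotide probe, paired with APE1 for strand incision and turnover, read as fluorescence at 594 nm.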
DNA-3-methyladenine glycosylase (Homo sapiens), sequence (P29372 whole entry): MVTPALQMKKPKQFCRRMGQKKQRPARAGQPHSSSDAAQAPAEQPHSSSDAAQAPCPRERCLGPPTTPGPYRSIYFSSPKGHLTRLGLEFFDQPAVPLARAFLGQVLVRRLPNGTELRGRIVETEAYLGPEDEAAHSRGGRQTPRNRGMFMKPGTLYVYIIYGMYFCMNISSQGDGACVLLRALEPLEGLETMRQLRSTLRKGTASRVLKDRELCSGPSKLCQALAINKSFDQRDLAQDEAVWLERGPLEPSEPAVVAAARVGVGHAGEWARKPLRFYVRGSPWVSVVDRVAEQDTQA
Description: Inhibition of MPG by quantifying inhibition of MPG-mediated cleavage and dissociation of quenched duplex DNA oligonucleotides, measured as fluorescence at 594 nm. To generate a functional strand incision and increase turn-over this assay is coupled to APE1.
Experiment [9] concerns the target N-glycosylase/DNA lyase (Homo sapiens) (UniProt O15527).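 Note: OGG1 cleavage of a quenched duplex DNA oligonucleotide, coupled to APE1 for strand incision, read as fluorescence at 594 nm.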
Description: Inhibition of OGG1 by quantifying inhibition of OGG1-mediated cleavage and dissociation of quenched duplex DNA oligonucleotides, measured as fluorescence at 594 nm. To generate a functional strand incision and increase turn-over this assay is coupled to APE1.
Experiment [10] addresses Uracil-DNA glycosylase (Homo sapiens) (UniProt P13051).
Description: Inhibition of UNG by quantifying inhibition of UNG-mediated cleavage and dissociation of quenched duplex DNA oligonucleotides, measured as fluorescence at 594 nm. To generate a functional strand incision and increase turn-over this assay is coupled to APE1.

This passage reports inhibition results from ChEMBL document CHEMBL5665443, “Enzyme Inhibitor Single Concentration assay results for EUbOPEN Chemogenomics Library” (2024).

Values joined by “and” are separate entries in the source; they are usually repeats but may differ in a detail not shown here. Equal entries are not always repeated.

G/T mismatch-specific thymine DNA glycosylase (Homo sapiens), sequence (Q13569 whole entry): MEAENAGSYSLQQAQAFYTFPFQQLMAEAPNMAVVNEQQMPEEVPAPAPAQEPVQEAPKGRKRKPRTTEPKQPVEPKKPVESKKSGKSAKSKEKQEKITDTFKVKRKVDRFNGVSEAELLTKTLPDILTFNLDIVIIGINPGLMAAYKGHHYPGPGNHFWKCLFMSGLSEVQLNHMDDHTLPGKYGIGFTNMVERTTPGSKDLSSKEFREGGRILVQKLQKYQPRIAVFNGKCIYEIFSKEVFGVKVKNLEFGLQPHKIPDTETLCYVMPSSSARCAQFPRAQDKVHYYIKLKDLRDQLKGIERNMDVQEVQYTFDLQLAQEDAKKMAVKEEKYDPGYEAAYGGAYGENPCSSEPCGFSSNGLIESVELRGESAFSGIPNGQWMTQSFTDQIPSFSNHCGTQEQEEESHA
Endonuclease 8-like 1 (Homo sapiens), sequence (Q96FI4 whole entry): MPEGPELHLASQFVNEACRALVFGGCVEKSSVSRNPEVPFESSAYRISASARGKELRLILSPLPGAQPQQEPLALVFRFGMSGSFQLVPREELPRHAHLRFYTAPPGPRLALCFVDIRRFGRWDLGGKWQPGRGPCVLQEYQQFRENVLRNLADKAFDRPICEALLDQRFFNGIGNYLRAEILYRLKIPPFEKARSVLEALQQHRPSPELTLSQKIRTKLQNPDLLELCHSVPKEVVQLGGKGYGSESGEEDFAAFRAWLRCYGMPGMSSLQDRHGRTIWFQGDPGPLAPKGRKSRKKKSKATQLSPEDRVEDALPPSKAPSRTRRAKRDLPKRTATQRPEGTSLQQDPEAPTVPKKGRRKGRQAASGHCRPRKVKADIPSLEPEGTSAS
N-glycosylase/DNA lyase (Homo sapiens), sequence (O15527 whole entry): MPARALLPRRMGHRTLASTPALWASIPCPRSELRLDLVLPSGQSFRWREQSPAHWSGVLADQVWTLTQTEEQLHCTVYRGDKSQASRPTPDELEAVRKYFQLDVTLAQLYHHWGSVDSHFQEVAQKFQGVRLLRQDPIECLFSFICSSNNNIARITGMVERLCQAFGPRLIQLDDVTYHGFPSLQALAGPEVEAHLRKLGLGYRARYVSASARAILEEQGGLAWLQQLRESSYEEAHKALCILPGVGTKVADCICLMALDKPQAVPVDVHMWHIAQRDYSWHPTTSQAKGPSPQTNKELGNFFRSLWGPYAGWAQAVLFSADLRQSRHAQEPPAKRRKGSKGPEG
Uracil-DNA glycosylase (Homo sapiens), sequence (P13051 whole entry): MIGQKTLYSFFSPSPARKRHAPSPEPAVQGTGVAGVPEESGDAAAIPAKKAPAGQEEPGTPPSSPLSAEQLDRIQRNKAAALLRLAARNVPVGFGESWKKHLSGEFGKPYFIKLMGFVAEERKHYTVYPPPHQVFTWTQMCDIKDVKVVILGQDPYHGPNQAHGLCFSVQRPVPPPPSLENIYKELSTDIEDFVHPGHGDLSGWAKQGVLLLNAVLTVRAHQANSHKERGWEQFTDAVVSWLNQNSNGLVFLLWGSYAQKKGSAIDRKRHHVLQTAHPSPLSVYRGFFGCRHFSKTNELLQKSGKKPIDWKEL

As to `CCCCCNC(=O)NS(=O)(=O)c1cc([N+](=O)[O-])ccc1NC1CCCCC1`, the inhibition (in general, the relative decrease from the control value, in per cent) is -1.39% in [1]; 30.5% in [2]; 23.6% in experiment [3]; 13.9% in experiment [4]; 22.7% in experiment [5]; 14.5% in [6]. Further, the inhibition turned out to be 14.4% in [7], 19.1% in experiment [8] and 8.51% in [9].
In the case of `Cc1nnn(-c2ccc(-c3ccc(C4(C(=O)O)CC4)cc3)cc2)c1NC(=O)O[C@H](C)c1ccccc1`, the inhibition in experiment [1] was -1.39%; in [2], 17.2%; in experiment [3], 20.7%; in [4], 4.91%; in [5], 34.4%; in [6], 4.01%. The inhibition in experiment [7] is -7.6%; in [8], 13.9%; in experiment [9], -1.41%.
As to `N=C(N)NC(=O)Cc1c(Cl)cccc1Cl`, the inhibition was 10.8% in [1]; -4.2% in experiment [2]; 3.06% in [3]; 3.31% in [4]; -6.99% in experiment [5]; 12.5% in experiment [6]. Besides, the inhibition in [7] was 20.2%; in experiment [8] it was -0.939%; in experiment [9], -0.992%.
As to `CC(C)[C@@H]1CC[C@@H](C)C[C@@H]1P(=O)(c1ccccc1)c1ccccc1`, the inhibition in [1] is -6.96%; in experiment [2] it was 1.29%; in experiment [3], -6.96%; in [4], -9.39%; in [5], 3.26%; in experiment [7], 6.35%. Further, the inhibition in [8] was -5.97%; in [9], -2.54%.
`CSc1cc2c(cc1C(F)(F)F)N(C(=O)Nc1cccnc1)CC2`: the inhibition in experiment [1] was 6.91%; in [2], -9.06%; in [3] it was 11.2%; in experiment [4], 4.28%; in experiment [5], -9.84%; in experiment [6], 16.2%. Moreover, the inhibition in experiment [7] was 5.59%; in experiment [8], -3.29%; in experiment [9] it was -1.82%.
With `CCCNS(=O)(=O)Nc1ncnc(OCCOc2ncc(Br)cn2)c1-c1ccc(Br)cc1`, the inhibition was -4.06% in experiment [1]; 26.1% in [2]; 18.3% in [3]; -4.93% in [4]; 24.4% in experiment [5]; 2.51% in experiment [6]. Moreover, the inhibition in experiment [7] came out at 7.05%; in experiment [8] it was 19%; in [9] it was 2.2%.
Turning to `COc1cccc([C@H](O)C2CCN(CCc3ccc(F)cc3)CC2)c1OC`, the inhibition in experiment [1] is -1.98%; in [2], -6.25%; in experiment [3], 22.3%; in experiment [4], 4.47%; in [5] it was 14.4%; in [6], -8.72%. Moreover, the inhibition was 3.39% in experiment [7], -10% in experiment [8] and -1.39% in [9].
Consider `O=C(O)c1n[nH]c2c1C[C@H]1C[C@@H]21`, for which the inhibition in [1] was -0.352% and 3.65%; in experiment [2], -6.12%; in experiment [3], -5.48%; in [4] it was -5.22%; in [5], -4.32%; in experiment [6], -1.48% and -4.98%. The inhibition in experiment [7] was 21.7%; in [8] it was -4.72%; in [9] it was -1.41%.
With `COc1cc(OC2CCN(C(C)=O)CC2)ccc1C(=O)N1CCC(N2C(=O)OCc3ccccc32)CC1`, the inhibition in experiment [1] is 2.08%; in [2] it was 48.1%; in experiment [3] it was 20.8%; in experiment [4], -0.579%; in experiment [5], 5.95%; in experiment [6] it was 5.25%. Besides, the inhibition in experiment [7] is 24.5%; in experiment [10], -2.76%; in experiment [8] it was -3.3%.
